According to US20240226357A1, “Sanitization Method for Affinity Chromatography Matrices” (priority 2015, published 2024):
Read-outs that look alike come from different tables or passages of the source.

Assays:
Fab = settings: Capto L, compared to PBS control
Description: A PreDictor™ (GE Healthcare) 96-well filter plate with 6 microliters Capto L in each well was subjected to the following procedure: • Removal of PreDictor storage solution (20% Ethanol) • Wash: 3×200 μl 20 mM phosphate, 150 mM NaCl pH 7.4 • Wash 3×200 μl MilliQ • Addition of 600 μl SIP solutions and 20 mM phosphate, 150 mM NaCl pH 7.4 (control) (48 solutions and duplicates in plate) • Sealing of bottom and top of the plates with Parafilm • Incubation in SIP solutions for 4 or 24 hours with shaking at 450 rpm • Liquids were removed by centrifugation (500×g, 1 min).
The static binding capacity (SBC) of a Fab was determined by: • 1. Removal of SIP solutions • 2. Wash: 1x600 μl MilliQ, 1x600 μl PBS • 3. Equilibration: 3x200 μl 20 mM phosphate, 150 mM NaCl pH 7.4 • 4. Sample loading: 200 μl Fab at a concentration of 2.5 mg/mL, incubation 10 min and 90 min at 1100 rpm • 5. Collection of unbound sample in UV-readable plates and measurement of UV absorbance at 280 (and 254 nm)
Liquids were removed by centrifugation (500×g, 1 min).
The UV absorbance of the PBS buffer at 280 nm (path check on) was subtracted from the UV absorbance of the flow through fraction (A280-blank280)
The concentration in the flow through fraction was calculated using a standard curve (A280-blank280)/1.2796
[formula] • Vsample=200μl • Vmedium=6 μl • Vr=6+0.6*Vmedium=9.6 • Vr: The retained volume i.e. filter volume (6 μl) and liquid volume in resin (0.6*6)

[1] = system: Bacillus subtilis (spores); experiment: Disinfectant challenge test in Capto L 50% slurry, viable count of spores; assay type: cell-based; settings: for Log10 reduction of Bacillus subtilis spores: mean of duplicates
Description: (§1) The purpose of this investigation was to evaluate the bactericidal and sporicidal effect on • bacterial spores and bacteria of eight disinfectants as well as PBS as reference added to • Capto L 50% slurry. The effect was tested with contact times of 0 and 15 minutes as well as • 1, 4, and 24 hours.
(§2) The test was performed in slurries of Capto L 50% and disinfectants. Microorganisms were • added at a concentration of approximately 10^7 cfu/mL to the suspension and the reducing effect was evaluated after given time intervals by neutralizing the disinfectant. […] The results were evaluated with regard to log10 reductions of the microorganisms Bacillus subtilis (spores) and Pseudomonas aeruginosa (vegetative bacteria).
(§3) 10^7 cfu/mL of the microorganism was added to 10 mL of Capto L 50% slurry with disinfectant. Samples were mixed and duplicate samples of 0.1 mL were added to 50 mL of neutralizing agent (0.075 M phosphate buffer with 0.3% lecithin, 3.0% Tween 80, 0.5% sodium thiosulfate and 0.1% L-histidine). The total solution was analyzed by filtrating fractions corresponding to 10-times serial dilutions. Filters were rinsed three times with 100 mL of 0.9% NaCl. As positive control each microorganism was added to 50 mL of neutralizing agent, the same amount added as for the disinfectant challenge tests. The total solution was analyzed by filtrating fractions corresponding to 10-times serial dilutions. Filters were rinsed three times with 100 mL of 0.9% NaCl. Filters were incubated on TSA (Trypticase Soy Agar) at 30-35° C. for 2-5 days. Preliminary reading was performed after 1-3 days. The reduction of microorganisms was calculated as the log10 of the surviving microorganisms as compared to that of the positive control.

[2] = system: Pseudomonas aeruginosa (vegetative bacteria); experiment: Disinfectant challenge test in Capto L 50% slurry, viable count of vegetative bacteria; assay type: cell-based; settings: mean of duplicates
Description: as §1, §2, §3

[3] = system: monoclonal antibody immobilized on a Biacore chip; experiment: Biacore (SPR) binding kinetics of ligands before and after incubation in 0.1 M peracetic acid; settings: ligand incubated for 0 to 24 h in 0.1 M PAA
Description: The kinetics was measured by Surface Plasmon Resonance on a Biacore™ instrument. […] Reference sample (0 h) was withdrawn, 100 μl and buffer exchanged to 50 mM Ammonium Bicarbonate. • 4. 10% 1 M PAA was added and the incubations started. • 5. Samples were withdrawn after 1, 2, 4, 8, 16 and 24 h, 100 μl and buffer exchanged to 50 mM Ammonium Bicarbonate to stop the oxidation reaction. • 6. The concentrations were measured in all samples by measuring the UV absorbance at 276 nm. • 7. The samples were then analyzed on LC-MS and Biacore.

[4] = 4 h incubation in SIP solution, 90' incubation with Fab sample
[5] = 24 h incubation in SIP solution, 10' incubation with Fab sample

Molecule | Relative remaining SBC (%) (Fab; [4]) | Relative remaining SBC (%) (Fab; [5]) | Log10 reduction of Bacillus subtilis spores ([1]; contact time 0 min) | Log10 reduction of Bacillus subtilis spores ([1]; contact time 15 min) | Log10 reduction of Bacillus subtilis spores ([1]; contact time 1 hour) | Log10 reduction of Bacillus subtilis spores ([1]; contact time 4 hours) | Log10 reduction of Bacillus subtilis spores ([1]; contact time 24 hours) | Log10 reduction of Pseudomonas aeruginosa ([2]; contact time 0 min) | Log10 reduction of Pseudomonas aeruginosa ([2]; contact time 15 min) | Log10 reduction of Pseudomonas aeruginosa ([2]; contact time 1 hour) | Log10 reduction of Pseudomonas aeruginosa ([2]; contact time 4 hours) | Log10 reduction of Pseudomonas aeruginosa ([2]; contact time 24 hours) | also measured
CC(=O)OO [500 mM Peracetic acid, Peracetic acid] | 103% | 97% | – | – | – | – | – | – | – | – | – | – | Relative remaining SBC (%) (Fab; 24 h incubation in SIP solution, 90' incubation with Fab sample): 102%
CC(=O)OO [0.1M Peracetic acid, peracetic acid] | – | – | 5.6 log10 | >6.9 log10 | >6.9 log10 | >6.9 log10 | >6.9 log10 | >6.9 log10 | >6.9 log10 | >6.9 log10 | >6.9 log10 | >6.9 log10 | Killing of B. subtilis spores (in words) ([1]; among the tested disinfectants): capable of efficiently killing B. subtilis spores; Relative remaining SBC (%) (Fab; 4 h incubation in SIP solution, 10' incubation with Fab sample, listed as 100 mM Peracetic acid): 109%; Relative remaining SBC (%) (Fab; 4 h incubation in SIP solution, 90' incubation with Fab sample, listed as 100 mM Peracetic acid): 101%; Relative remaining SBC (%) (Fab; 24 h incubation in SIP solution, 10' incubation with Fab sample, listed as 100 mM Peracetic acid): 107%
N=C(NCCCCCCNC(=N)NC(=N)Nc1ccc(Cl)cc1)NC(=N)Nc1ccc(Cl)cc1.O=C(O)[C@H](O)[C@@H](O)[C@H](O)[C@H](O)CO.O=C(O)[C@H](O)[C@@H](O)[C@H](O)[C@H](O)CO [2% Chlorhexidine digluconale, Chlorhexidine digluconale] | – | – | 1.3 log10 | 1.2 log10 | 0.7 log10 | 1.6 log10 | 0.2 log10 | >6.9 log10 | >6.9 log10 | >6.9 log10 | >6.9 log10 | >6.9 log10 | –
rPrA: recombinant Protein A | – | – | – | – | – | – | – | – | – | – | – | – | Affinity before and after SIP [3]: some loss in affinity with increasing SIP treatment
OO [5% H2O2, hydrogen peroxide] | 102% | 102% | – | – | – | – | – | – | – | – | – | – | –
